# Measurements as given in PMC4210897, “Antimicrobial Activity of Peptides Derived from Olive Flounder Lipopolysaccharide Binding Protein/Bactericidal Permeability-Increasing Protein (LBP/BPI)” (Marine Drugs, 2014).
# Where no end group is shown, it is not given here.
# Key:
# B. subtilis KCTC1021 = assay: Ultrasensitive radial diffusion assay (URDA), MEC; assay type: cell-based, Bacillus subtilis; conditions: B. subtilis KCTC1021, Gram +, 10 mM PB pH 6.6, 37 °C, x-intercept of units vs log10 concentration, triplicate averaged
# Method: (§1) The antimicrobial activity of the purified peptide was assessed as described previously. We tested the synthetic peptides against several Gram-positive bacteria including two Bacillus subtilis strains, Micrococcus luteus, Staphylococcus aureus, and Streptococcus iniae, Gram-negative bacteria including three Escherichia coli strains, Aeromonas hydrophila, Edwardsiella tarda, Pseudomonas aeruginosa, Vibrio parahemolyticus, and Salmonella enteric, as well as the yeast Candida albicans. All strains were grown overnight for 18 h in trypticase soy broth (TSB) or sabouraud dextrose broth (SDB) at the appropriate temperature (25 °C for A. hydrophila, E. tarda, P. aeruginosa, S. iniae, and V. parahemolyticus and 37 °C for the other strains). After an overnight incubation, the bacterial and C. albicans suspensions were diluted to a McFarland turbidity standard of 0.5 (Vitek Colorimeter #52-1210; Hach, Loveland, CO, USA) corresponding to ~10^8 CFU/mL for bacteria and ~10^6 CFU/mL for C. albicans. One-half milliliter of diluted bacterial or C. albicans suspension was added to 9.5 mL of underlay gel containing 5 × 10^6 CFU/mL or 5 × 10^4 CFU/mL in 10 mM phosphate buffer (PB; pH 6.6) with 0.03% TSB or 0.03% SDB and 1% Type I (low EEO) agarose. The purified peptide was serially diluted twofold in 5 μL of acidified water (0.01% HAc), and each dilution was added to 2.5-mm-diameter wells made in the 1-mm-thick underlay gels. After incubation for 3 h at either 25 °C (for A. hydrophila, E. tarda, P. aeruginosa, S. iniae, and V. parahemolyticus) or 37 °C (the other strains), the bacterial or yeast suspension was overlaid with 10 mL of double-strength overlay gel containing 6% TSB or 6% SDB with 10 mM PB (pH 6.6) in 1% agarose. Plates were incubated for an additional 18–24 h, after which the clearing zone diameters were measured. After subtracting the diameter of the well, the clearing zone diameter was expressed in units (0.1 mm = 1 U).
# (§2) All tested bacteria and yeast were prepared as described above. The minimal effective concentration (MEC, μg/mL) of the synthetic peptides was calculated as the x-intercept of a plot of units against the log10 of the peptide concentration. […] The antimicrobial assay was performed in triplicate and the results were averaged.
# B. subtilis RM125 = assay: URDA, MEC; assay type: cell-based, Bacillus subtilis; conditions: B. subtilis RM125, Gram +, pH 6.6, 37 °C, triplicate averaged
# Method: as §1, §2
# M. luteus ATCC9341 = assay: URDA, MEC; assay type: cell-based, Micrococcus luteus; conditions: M. luteus ATCC9341, Gram +, pH 6.6, 37 °C, triplicate averaged
# Method: as §1, §2
# S. aureus RM4220 = assay: URDA, MEC; assay type: cell-based, Staphylococcus aureus; conditions: S. aureus RM4220, Gram +, pH 6.6, 37 °C, triplicate averaged
# Method: as §1, §2
# E. coli KCTC1116 = assay: URDA, MEC; assay type: cell-based, Escherichia coli; conditions: E. coli KCTC1116, Gram −, pH 6.6, 37 °C, triplicate averaged
# Method: as §1, §2
# E. coli ML35p = assay: URDA, MEC; assay type: cell-based, Escherichia coli; conditions: Gram −, pH 6.6, 37 °C, triplicate averaged
# Method: as §1, §2
# P. aeruginosa KCTC2004 = assay: URDA, MEC; assay type: cell-based, Pseudomonas aeruginosa; conditions: P. aeruginosa KCTC2004, Gram −, pH 6.6, 25 °C, triplicate averaged
# Method: as §1, §2
# S. enterica KCTC2514 = assay: URDA, MEC; assay type: cell-based, Salmonella enteric; conditions: S. enterica KCTC2514, Gram −, pH 6.6, 37 °C, triplicate averaged
# Method: as §1, §2
# A. hydrophila KCTC2358 = assay: URDA, MEC; assay type: cell-based, Aeromonas hydrophila; conditions: fish pathogen A. hydrophila KCTC2358, Gram −, pH 6.6, 25 °C, triplicate averaged
# Method: as §1, §2
# E. tarda H-4 = assay: URDA, MEC; assay type: cell-based, Edwardsiella tarda; conditions: fish pathogen E. tarda H-4, Gram −, pH 6.6, 25 °C, triplicate averaged
# Method: as §1, §2
# S. iniae FP5229 = assay: URDA, MEC; assay type: cell-based, Streptococcus iniae; conditions: fish pathogen S. iniae FP5229, Gram +, pH 6.6, 25 °C, triplicate averaged
# Method: as §1, §2
# [1] = system: V. parahemolyticus KCCM41664; assay: URDA, MEC; assay type: cell-based, Vibrio parahemolyticus; conditions: fish pathogen V. parahemolyticus KCCM41664, Gram −, pH 6.6, 25 °C, triplicate averaged
# Method: as §1, §2
# C. albicans KCTC7965 = assay: URDA, MEC; assay type: cell-based, Candida albicans; conditions: C. albicans KCTC7965, yeast, pH 6.6, 37 °C, triplicate averaged
# Method: as §1, §2
# [2] = system: E. coli ML35p outer membrane; assay: Outer membrane permeabilization, NPN uptake assay; assay type: cell-based, Escherichia coli; conditions: peptide 40 μg/mL, 3 min after addition, 25 °C, 5 mM HEPES pH 7.2; order 2A > 6A > 1N > 5A; triplicate
# Method: (§3) The outer membrane-permeabilizing activity of peptides was determined using the 1-N-phenylnapthylamine (NPN) uptake assay as described by Koo et al.. Briefly, an overnight culture of E. coli ML35p was transferred to fresh TSB medium and grown to A600 of 0.5–0.6. Cells were harvested, washed, and resuspended in the same volume of buffer (5 mM HEPES, pH 7.2, 5 mM KCN, and 5 mM glucose). Next, 20 μL of 0.5 mM NPN was added and mixed with 1 mL of cells, and peptide samples (40 μg/mL) were added after 3 min. The increase in fluorescence due to partitioning of NPN into the outer membrane was measured 3 min after the addition of peptides using a spectrofluorometer (LS 50B Fluorescence Spectrometer; PerkinElmer, Waltham, MA, USA) at an excitation wavelength of 350 nm and an emission wavelength of 420 nm at 25 °C. The extent of cytoplasmic membrane permeabilization was determined by measuring β-galactosidase activity in E. coli ML35p using O-nitrophenyl-β-D-galactopyranoside (ONPG), a nonmembrane-permeative chromogenic substrate. Mid-logarithmic phase E. coli cells were washed in 10 mM sodium phosphate buffer (NaPB), pH 7.4, and resuspended in the same buffer with 1.5 mM ONPG. The hydrolysis of ONPG to O-nitrophenol over time was monitored spectrophotometrically at 420 nm following the addition of peptide samples. Membrane permeabilization assays were performed in triplicate and the results were averaged.
# [3] = system: E. coli ML35p inner cytoplasmic membrane; assay: Cytoplasmic membrane permeabilization, β-galactosidase/ONPG assay; assay type: cell-based, Escherichia coli; conditions: peptide 40 μg/mL, 10 mM NaPB pH 7.4, 1.5 mM ONPG; triplicate
# Method: as §3
Substance,Minimal Effectives Concentration (B. subtilis KCTC1021) [µg/mL],Minimal Effectives Concentration (B. subtilis RM125) [µg/mL],Minimal Effectives Concentration (M. luteus ATCC9341) [µg/mL],Minimal Effectives Concentration (S. aureus RM4220) [µg/mL],Minimal Effectives Concentration (E. coli KCTC1116) [µg/mL],Minimal Effectives Concentration (E. coli ML35p) [µg/mL],Minimal Effectives Concentration (P. aeruginosa KCTC2004) [µg/mL],Minimal Effectives Concentration (S. enterica KCTC2514) [µg/mL],Minimal Effectives Concentration (A. hydrophila KCTC2358) [µg/mL],Minimal Effectives Concentration (E. tarda H-4) [µg/mL],Minimal Effectives Concentration (S. iniae FP5229) [µg/mL],Minimal Effectives Concentration [1] [µg/mL],Minimal Effectives Concentration (C. albicans KCTC7965) [µg/mL],Outer membrane permeabilization ability (NPN fluorescence) [2],"Inner cytoplasmic membrane permeabilization ability (ONPG hydrolysis, 420 nm) [3]"
RFPGLMMKLLV-NH2 (C-terminus assumed) [ofLBP 1N],1.4,1.0,5.3,5.6,1.7,0.8,6.4,1.2,4.8,125.0,5.3,2.2,5.9,significant outer membrane permeabilization ability,strong permeabilization ability
Piscidin 1 [reference compound],2.3,4.5,2.3,2.2,7.0,2.3,8.0,7.0,10.0,125.0,6.5,1.8,>62.5,strong permeabilization ability,strong cytoplasmic membrane permeabilizing activity
RFPKLMMKLLV-NH2 [ofLBP 2A],0.8,1.2,5.7,5.0,1.2,0.6,6.6,1.2,3.6,62.5,3.0,1.7,5.6,significant outer membrane permeabilization ability,strong permeabilization ability
MKLVKTWLKVLK-NH2 [ofLBP 6A],1.4,1.8,2.2,2.7,3.8,1.8,4.6,2.6,2.8,62.5,1.2,0.9,2.7,significant outer membrane permeabilization ability,strong permeabilization ability
KLVKTWLKVLK [ofLBP 5A],0.7,4.2,8.0,3.7,1.6,1.6,8.0,3.5,5.0,250.0,2.7,1.2,4.0,significant outer membrane permeabilization ability,no permeabilization ability
KLVKTQLKVLK [ofLBP 4N],62.5,250.0,250.0,62.5,1.5,250.0,>250.0,250.0,>250.0,>250.0,>250.0,1.3,125.0,no inner or outer membrane permeability,no permeabilization ability
